Source: patent US8927695B2, “Protein-based assays for screening of the IgE-receptor interaction” (The Board of Trustees of the Leland Stanford Junior …, priority 2010, dated 2015)

B1: unlabeled IgE-Fc: unlabeled wild type human IgE-Fc (Cε3-Cε4) used as competitor (protein, listed as Homo sapiens)
chain: ADPCADSNPRGVSAYLSRPSPFDLFIRKSPTITCLVVDLAPSKGTVNLTWSRASGKPVNHSTRKEEKQRNGTLTVTSTLPVGTRDWIEGETYQCRVTHPHLPRALMRSTTKTSGPRAAPEVYAFATPEWPGSRDKRTLACLIQNFMPEDISVQWLHNEVQLPDARHSTTQPRKTKGSGFFVFSRLEVTRAEWEQKDEFICRAVHEAASPSQTVQRAVSVNPGK
modifications: PEPTIDE (1)..(223) Wildtype IgE-Fc (C3-C4)

Columns and labels:
inflammatory response = conditions: mouse model of acute inflammation; cited from earlier work
LFA-1/ICAM-1 interaction = LFA-1/ICAM-1 interaction (Homo sapiens, UniProt P05107+P20701); conditions: solid-phase binding assay stated for LFA703; cited from earlier work
transthyretin (TTR) = transthyretin (TTR) (Homo sapiens, UniProt P02766); conditions: in vitro; cited from earlier work
[1] = target: mutant hormone / mutant receptor (hGH/hGHbp) (Homo sapiens, UniProt P01241+P10912, T201G/W122G); conditions: at a concentration of 100 μM; cited from earlier work
[2] = target: T1, 488-labeled 367C IgE-Fc bound to FcεRIα (Homo sapiens, UniProt P01854+P12319, K248C); assay: fluorescence assay in competitive inhibitor format; type: binding
T1 construct: starts at amino acid 1 and ends at amino acid 176 of said FcεRIα, using the numbering −25 to 232; made in house; host or cells: IgE-Fc: insect cells (Trichoplusia ni)
Description: Fluorescence Measurement. Samples were monitored by fluorescence using a Synergy 4 Fluorometer (BioTek) in black 96-well Costar fluorescence plates (Corning). Samples were prepared manually by mixing Alexa-488-labelled 367C IgE-Fc in 0.1% Tween-20 and 100 nM BSA, with buffered 50 mM Tris and 50 mM NaCl, pH 8. Fluorescence was measured using an excitation wavelength of 488 nm and emission was monitored at 520 nm. The read-type for typical measurements was Endpoint. All measurements were recorded in duplicate.

FcεRIα = target: T2, FcεRIα (Homo sapiens, UniProt P12319); conditions: natural IgE-receptor interaction; read-out: affinity of the natural receptor interaction; cited from earlier work
T2 sequence (P12319 26-257): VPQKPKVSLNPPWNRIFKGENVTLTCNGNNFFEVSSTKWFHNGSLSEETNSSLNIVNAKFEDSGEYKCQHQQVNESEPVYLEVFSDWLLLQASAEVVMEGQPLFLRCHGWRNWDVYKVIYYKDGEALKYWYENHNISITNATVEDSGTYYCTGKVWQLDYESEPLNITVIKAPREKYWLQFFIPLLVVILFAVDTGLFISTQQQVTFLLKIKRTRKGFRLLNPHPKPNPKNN

| Molecule | inhibition of TTR amyloid fibril formation (transthyretin (TTR)) | also measured |
| --- | --- | --- |
| CC[C@H](C)C(=O)O[C@H]1C[C@@H](C)C=C2C=C[C@H](C)[C@H](CC[C@H]3C[C@@H](O)CC(=O)N3Cc3ccc4c(CO)c(OC)ccc4c3)[C@H]21 [LFA703] |  | inflammatory response (inflammatory response): suppress the inflammatory response; IC50 (LFA-1/ICAM-1 interaction): 200 nM |
| O=C(O)c1ccccc1Nc1ccccc1C(F)(F)F [o-FLU, ortho-trifluoromethylphenyl anthranilic acid] | potent inhibitors |  |
| CC(C(=O)O)c1ccc(-c2ccccc2)c(F)c1 (stereo not drawn) [flurbiprofen] | strongly inhibited |  |
| O=C(O)c1ccccc1Nc1cccc(C(F)(F)F)c1 [flufenamic acid] | potently inhibit |  |
| Clc1ccc2nc(C(Cl)(Cl)Cl)[nH]c2c1 [5-Chloro-2-trichloromethyl benzimidazole] |  | increase in binding affinity of the mutant hormone to the mutant receptor [1]: more than 1000 fold |
| O=C(O)c1cccc2c1Oc1c(C(=O)O)cccc1N2c1cccc(C(F)(F)F)c1 [PHENOX, N-(meta-trifluoromethylphenyl)-phenoxazine-4,6-dicarboxylic acid] | potent inhibitors |  |
| O=C(O)Cc1ccccc1Nc1c(Cl)cccc1Cl [diclofenac] | strongly inhibited |  |
| Oc1ccc(C=Cc2cc(O)cc(O)c2)cc1 [resveratrol] | strongly inhibited |  |
| B1 |  | direct effect on fluorescence of the dye-labeled IgE-Fc ([2]; control in the absence of FcεRIα): no significant effect; fluorescence recovery / competition of receptor binding ([2]; in the presence of FcεRIα): completely competed; Kd (FcεRIα): ~1 nM |
